PubChem BioAssay (NCI)
Values joined by “and” are separate entries in the source; they are usually repeats but may differ in a detail not shown here. Equal entries are not always repeated.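 Cells were grown in 96-well plates and exposed to each compound for 48 hours at five concentrations; endpoints were interpolated linearly between bracketing concentrations, or set to the highest concentration if not reached. GI50: concentration for 50% inhibition of growth. TGI: concentration producing complete growth inhibition.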

Legend:
Assay in all cases: NCI tumour cell line growth inhibition, 48 h
[1] = test system: 786-0 renal
[2] = test system: CCRF-CEM leukemia
[3] = test system: EKVX NSCLC
[4] = test system: HT29 colon
[5] = test system: IGROV1 ovarian
[6] = test system: K-562 leukemia
[7] = test system: MOLT-4 leukemia
[8] = test system: NCI/ADR-RES ovarian
[9] = test system: OVCAR-4 ovarian
[10] = test system: SR leukemia

## c1cc2n(n1)CCN2
[1]
  TGI: > 7100 µM
[2]
  TGI: 6680 µM
[3]
  TGI: 6630 µM
[4]
  TGI: > 10000 µM
[5]
  TGI: > 10000 µM
[6]
  TGI: > 10000 µM
[7]
  TGI: 9880 µM
[8]
  TGI: 6590 µM
[9]
  TGI: > 9780 µM
[10]
  TGI: > 9010 µM

## Cc1cc(NCCN(C(C)C)C(C)C)nc(/N=C(\N)Nc2ccc(Cl)c(C(F)(F)F)c2)n1
[1]
  GI50: 0.736 µM
  TGI: 2.06 µM
[2]
  GI50: 0.335 µM
  TGI: 1.47 µM
[3]
  GI50: 1.48 µM
  TGI: 3.75 µM
[4]
  GI50: 0.267 µM
  TGI: 0.919 µM
[5]
  GI50: 0.819 µM
  TGI: 2.75 µM
[6]
  GI50: 0.191 µM
  TGI: 0.411 µM
[7]
  GI50: 0.383 µM
  TGI: 1.47 µM
[8]
  GI50: 1.67 µM
  TGI: 3.45 µM
[9]
  GI50: 0.697 µM
  TGI: 1.97 µM
[10]
  GI50: 0.155 µM
  TGI: 0.425 µM

## O=C(N/C(=C/c1ccc(Cl)cc1Cl)c1nc2ccccc2s1)c1ccccc1
[1]
  TGI: 35.4 µM
[2]
  TGI: > 100 µM
[3]
  TGI: 41 µM
[4]
  TGI: 40.1 µM
[5]
  TGI: 26.2 µM
[6]
  TGI: > 100 µM
[7]
  TGI: > 100 µM
[8]
  TGI: 39.5 µM
[9]
  TGI: 33.7 µM
[10]
  TGI: > 100 µM

## COC1/C=C/C(C)C(C(C)C(OC)C(C)CCC(=O)C(C)C(C/C=C/N(C)C=O)OC)OC(=O)/C=C/C=C(\C)CC(OC)CC2=CC(=O)O[C@H](C2)C(C)C(OC)CC(OC)/C=C/C(C)C(OC)C1 (some centres undefined)
[1]
  GI50: 0.0155 µM
  TGI: 0.0356 µM
[2]
  GI50: 0.0218 µM
  TGI: 0.0367 µM
[3]
  GI50: 0.123 µM
  TGI: 0.869 µM and 0.362 µM
[4]
  GI50: 0.0236 µM
[5]
  GI50: 0.0159 µM
  TGI: 0.053 µM and 0.0341 µM
[6]
  GI50: 0.00105 µM
[7]
  GI50: 0.164 µM
  TGI: 0.11 µM
[8]
  GI50: 0.102 µM
[9]
  GI50: 0.0108 µM
[10]
  GI50: 0.00311 µM

## CCOC(=O)c1cc2c(n1Cc1cccc(OC)c1)-c1oncc1CCC2
[1]
  GI50: 6.65 µM
  TGI: > 100 µM
[2]
  GI50: 2.17 µM
  TGI: > 100 µM
[4]
  GI50: 0.401 µM
  TGI: 22.8 µM
[5]
  GI50: 0.968 µM
  TGI: > 100 µM
[6]
  GI50: 0.456 µM
  TGI: > 100 µM
[7]
  GI50: 3.18 µM
  TGI: > 100 µM
[8]
  GI50: 0.69 µM
  TGI: > 21.7 µM
[9]
  GI50: 8.38 µM
  TGI: > 100 µM
[10]
  GI50: 0.301 µM
  TGI: 26.8 µM

## COc1cccc(C2=C(c3c(C)n(C)c4ccccc34)C(=O)NC2=O)c1
[1]
  GI50: > 25 µM
  TGI: > 25 µM
[2]
  GI50: > 25 µM
  TGI: > 25 µM
[4]
  GI50: 14.4 µM
  TGI: > 25 µM
[5]
  GI50: > 22.3 µM
  TGI: > 25 µM
[6]
  GI50: 11 µM
  TGI: > 25 µM
[7]
  GI50: 16.1 µM
  TGI: > 25 µM
[8]
  GI50: 14 µM
  TGI: > 25 µM
[9]
  GI50: > 21.5 µM
  TGI: > 25 µM
[10]
  GI50: 11.8 µM
  TGI: > 25 µM

## COc1ccc2c(=O)cc(-c3ccncc3)oc2c1OC
[1]
  TGI: > 100 µM
[2]
  TGI: 71.1 µM
[3]
  TGI: > 100 µM
[4]
  TGI: > 100 µM
[5]
  TGI: 78.1 µM
[6]
  TGI: > 100 µM
[7]
  TGI: 41.7 µM
[8]
  TGI: > 100 µM
[9]
  TGI: > 100 µM
[10]
  TGI: 39.4 µM

## Cc1ccc(-c2nc(C#N)c(S(=O)(=O)n3nc(C)cc3N)o2)cc1
[1]
  GI50: 2.35 µM
  TGI: 6.35 µM
[2]
  GI50: 2.55 µM
  TGI: 7.83 µM
[3]
  GI50: 21.8 µM
  TGI: 55 µM
[4]
  GI50: 2.37 µM
  TGI: 5.45 µM
[5]
  GI50: 2.99 µM
  TGI: 8.28 µM
[6]
  GI50: 1.25 µM
  TGI: 4.3 µM
[7]
  GI50: 1.97 µM
  TGI: 4.77 µM
[8]
  GI50: 19 µM
  TGI: 78.5 µM
[9]
  GI50: 4.26 µM
  TGI: 20.7 µM
[10]
  GI50: 2.06 µM
  TGI: 6.91 µM

## CCn1cnc(C[C@H](NC(=O)[C@@H](NC(=O)Nc2cc(C(F)(F)F)cc(C(F)(F)F)c2)C(C)C)C(=O)OC)c1
[1]
  GI50: 1.81 µM
  TGI: 3.67 µM
[2]
  GI50: 3.38 µM
  TGI: > 10 µM
[4]
  GI50: 2.02 µM
  TGI: 4.1 µM
[5]
  GI50: 2.33 µM
  TGI: 5.75 µM
[6]
  GI50: 6.38 µM
  TGI: > 10 µM
[7]
  GI50: 2.99 µM
  TGI: 9.35 µM
[8]
  GI50: > 10 µM
  TGI: > 10 µM
[9]
  GI50: 1.83 µM
  TGI: 3.54 µM
[10]
  GI50: 2.38 µM
  TGI: 7.86 µM

## CCCc1cc(=O)[nH]c(-n2nc(C)cc2C)n1
[1]
  GI50: 7.62 µM
  TGI: > 100 µM
[2]
  GI50: 1.59 µM
  TGI: 26.5 µM
[4]
  GI50: 6.68 µM
  TGI: 38.5 µM
[5]
  GI50: 2.31 µM
  TGI: > 100 µM
[6]
  GI50: 3.4 µM
  TGI: > 100 µM
[7]
  GI50: 3.44 µM
  TGI: > 100 µM
[8]
  GI50: 2.73 µM
  TGI: > 100 µM
[9]
  GI50: 4.68 µM
  TGI: > 100 µM
[10]
  GI50: 3.46 µM
  TGI: > 100 µM

## COc1ccc2c(c1)nnn1c3ncccc3c(N=O)c21
[1]
  GI50: 0.334 µM and 2.38 µM
[2]
  GI50: 0.0409 µM
  TGI: > 100 µM
[3]
  GI50: 3.38 µM and 3.82 µM
  TGI: 25.3 µM and 61.8 µM
[4]
  GI50: 0.622 µM and 1.2 µM
[5]
  GI50: 0.114 µM and 1.09 µM
[7]
  GI50: 0.0094 µM and 0.0123 µM
[8]
  GI50: 1.42 µM and 1.28 µM
  TGI: 10.6 µM and 12.6 µM
[9]
  GI50: 1.29 µM and 3.11 µM
  TGI: 16.6 µM and > 100 µM
[10]
  GI50: 0.00899 µM and 0.0247 µM

## O=C(Nc1cccc(-n2cc(-c3ccncc3)c(-c3ccc(Cl)c(O)c3)n2)c1)c1ccc(N2CCOCC2)c(C(F)(F)F)c1
[1]
  GI50: 2.83 µM
  TGI: 12.5 µM
[2]
  GI50: 1.82 µM
  TGI: > 50 µM
[4]
  GI50: 14.4 µM
  TGI: > 50 µM
[5]
  GI50: 9.42 µM
  TGI: > 50 µM
[6]
  GI50: 1.88 µM
  TGI: > 50 µM
[7]
  GI50: 2.37 µM
  TGI: 36.7 µM
[8]
  GI50: 2.86 µM
  TGI: > 50 µM
[9]
  GI50: 39.2 µM
  TGI: > 50 µM
[10]
  GI50: 1.63 µM
  TGI: > 50 µM

## NC(=O)c1ccccc1Nc1ccc2nnc(-c3ccncc3)n2n1
[1]
  GI50: 10.8 µM
  TGI: 23.1 µM
[2]
  GI50: 3.12 µM
  TGI: 17.4 µM
[4]
  GI50: 6.39 µM
  TGI: 19.2 µM
[5]
  GI50: 2.23 µM
  TGI: 5.41 µM
[6]
  GI50: 11.1 µM
  TGI: 60.4 µM
[7]
  GI50: 5.18 µM
  TGI: 30.4 µM
[8]
  GI50: 14.7 µM
  TGI: 44.7 µM
[9]
  GI50: 15.1 µM
  TGI: 30.5 µM
[10]
  GI50: 2.83 µM
  TGI: 14.6 µM

## O=C(Nc1cccc(-n2cc(-c3ccncc3)c(-c3cc(O)cc(Cl)c3)n2)c1)Nc1ccc(Cl)c(C(F)(F)F)c1
[1]
  GI50: 1.83 µM
  TGI: 4.45 µM
[2]
  GI50: 2.73 µM
  TGI: 8.93 µM
[4]
  GI50: 2.12 µM
  TGI: 4.58 µM
[5]
  GI50: 3.81 µM
  TGI: 12.6 µM
[6]
  GI50: 2.59 µM
  TGI: 11.9 µM
[7]
  GI50: 1.99 µM
  TGI: 5.81 µM
[8]
  GI50: 3.4 µM
  TGI: 23.6 µM
[9]
  GI50: 3.21 µM
  TGI: 9.23 µM
[10]
  GI50: 2.01 µM
  TGI: 5.18 µM
